Results from patent US20260365855A1, “TARGETED QUINOCYANINE DYES FOR THE INTRAOPERATIVE DELINEATION OF CANCER MARGINS” (THE TRUSTEES OF THE UNIVERSITY OF PENNSYLVANIA, priority 2022, published 2026).
Entries after “also recorded” stand apart in the source; their conditions may differ.

Experiments:
Emission spectra = type: physicochemical; details: for NIR-II fluorescence: absorbance and emission spectra, DMSO
Method: Emission spectra. The emissions for compounds 1, 2 and 3 were obtained using a Horiba QuantaMaster with excitation at 900 nm and emissions recorded in 1 nm steps from 925 to 1300 nm. […]
Compound 3 has a maximum absorbance at 942 nm and maximum emission at 979 nm. The emission intensities were determined with excitation at 900 nm.

Absorbance spectra = type: physicochemical; details: 5 μM in DMSO
Method: Absorbance spectra. The absorbances for compound 1 and compound 2 were obtained using a PerkinElmer Lambda 5 measuring absorbances in 1 nm steps from 500 to 1100 nm. The absorbance spectrum for compound 3 was obtained using a JASCO VI 70 measuring in 1 nm steps from 850 to 1150 nm. All compounds were dissolved in DMSO at a concentration of 5 μM.
Synthesis of compound 1, compound 2 and compound 3 was verified by MALDI-TOF mass spectrometry with further confirmation by ^1H-NMR.

KLN 205 cells = assay: Cell uptake (NIR-II emission of cell lysates); type: cell-based; details: 10 μM, 2 h, 37 °C; lysed with 0.5% Triton X-100
Method: KLN 205 cells were seeded into an 8 chamber slide at 15,000 cells/well. Cells were incubated overnight at 37 °C and 5% CO2. Cells were then treated in 500 μL with 10 μM of compound 1, compound 2 or compound 3, or with vehicle (DMSO). The slide was incubated for 2 hours with treatment at 37 °C and 5% CO2.
Following treatment, the solution was aspirated, and cells were rinsed twice with 500 μL of ice-cold DPBS. Triton X-100 was diluted to be 0.5% Triton, and 500 μL of this solution were added to each chamber for 10 min at 37 °C and 5% CO2 to lyse the cells. 100 μL were removed from each chamber and added to a 96-well black-well clear-bottom plate. The plate was then imaged for NIR-II emission using the PhotonEtc IR Vivo with excitation at 760, 808, 890, or 940 nm.
Cell uptake of compound 1, compound 2 and compound 3 was evaluated by incubating KLN 205 cells in 10 μM of compound 1, compound 2 and compound 3, or with DMSO for 2 hrs. Following incubation, cells were rinsed twice with ice-cold DPBS before lysing by treatment with Triton. The lysates were then transferred to a 96-well black-well clear-bottom plate and imaged for NIR-II fluorescence in the IR Vivo, as shown in FIG. 4.

[1] = NIR-II fluorescence of compound 1 vs. JAS239 and ICG (plate imaging, IR Vivo); type: physicochemical; details: for NIR-II emissions; excitation requirement: discussion of NIR-I fluorophores, require excitation with a NIR-I laser; for NIR-II emission: emission 1,000-1,250 nm, DMSO, no tissue
Method: NIR-II Fluorescence of Compound 1 vs. JAS239 and ICG.
Compound 1, JAS239, and ICG were dissolved in DMSO and added to a 96-well black-well clear-bottom plate at concentrations from 1 μM to 100 μM. The plate was then imaged using the PhotonEtc IR Vivo using the NIR-II emission filter (1000-1250 nm) with excitation at 760 nm, 808 nm, 890 nm, or 940 nm.
Dyes were excited with excitation lasers at 760, 808, 890, and 940 nm and emissions were measured between 1,000 and 1,250 nm.

[2] = Depth penetration comparisons of compound 1 vs. JAS239 and ICG through chicken breast tissue
Method: Depth Penetration Comparisons of Compound 1 vs. JAS239 and ICG.
Compound 1, JAS239, and ICG were diluted in DMSO and placed in a 96-well black-well clear-bottom plate at concentrations from 0.1 μM to 100 μM. The plate was then imaged using the PhotonEtc IR Vivo using the NIR-II emission filter with excitation at 760, 808, 890, or 940 nm. Wells were then covered with thinly sliced raw chicken breast tissue from 1 mm to 3 mm thick. Imaging was then repeated for each tissue thickness.
Chicken breast tissue was layered over wells containing varying concentrations of each fluorophore in 1 mm sections. Fluorescence in the NIR-II window was measured following excitation at 760, 808, 890, and 940 nm. […] Tissue scattering, absorption, and autofluorescence decreases at increasing wavelengths of light. Thus, the improved resolution of compound 1 with increasing wavelength of excitation laser likely resulted from improved tissue penetration of the excitation laser. Compound 1 has a maximum absorption at 970 nm resulting in strong excitation of the probe and fluorescence conversion.

[3] = NIR-II range; cited from earlier work
Athymic Nu/Nu mice = assay: In vivo imaging after tail vein injection; details: 40 nmol via tail vein
Method: Athymic Nu/Nu mice were injected with 40 nmol compound 1 through the tail vein in Normal Saline and filtered through a 0.22 μm filter.

[4] = 5 μM in DMSO, excitation at 900 nm
[5] = excitation lasers 760 and 808 nm
[6] = excitation lasers 890 and 940 nm

With “4-((E)-2((E)-2-chloro-3-(2-((Z)-1-hydroxyethylquinolin-4(JH)-ylidene)-ethylidene)cyclohex-1-en-1-yl)vinyl)-1-hydroxyethylquinolin-1-ium chloride [compound 2]” the “emission maxima, shift compared to compound 3” value (Emission spectra; [4]) was “further shifted into the NIR-II window compared to compound 3”, the maximum emission (Emission spectra; [4]) was 1007 nm and the NIR-II fluorescence (Emission spectra) was “measurable NIR-II fluorescence”. The “absorbance maxima, shift compared to compound 3” value (Absorbance spectra) was “further shifted into the NIR-II window compared to compound 3”, the maximum absorbance (Absorbance spectra) was 970 nm and the “NIR-II fluorescence of cell lysates (cell uptake)” value (KLN 205 cells) was “measurable emissions; also recorded: measurable fluorescence in the NIR-II window”.

In the case of `CC1(C)C(/C=C/C=C/C=C/C=C2\N(CCCCS(=O)(=O)O)c3ccc4ccccc4c3C2(C)C)=[N+](CCCCS(=O)(=O)[O-])c2ccc3ccccc3c21` [ICG, indocyanine green], the “NIR-II emissions; excitation requirement” value [1] is reported as “measurable emissions in the NIR-II window”, the NIR-II emission [1, 5] is reported as “strongest NIR-II emissions” and the NIR-II emission [1, 6] is reported as “disappeared”. The “NIR-II emission intensity, no tissue present” value [2] was “most intense emissions in the NIR-II window” and the “NIR-II fluorescence (background statement)” value [3] was “measurable fluorescence at even longer wavelengths of light in the near-infrared II (NIR-II) range”.

For `CC1(C)C(=C/C=C/C=C/C=C/C2=[N+](CCO)c3ccccc3C2(C)C)N(CCO)c2ccccc21` [JAS239], the “NIR-II emissions; excitation requirement” value [1] was “measurable emissions in the NIR-II window”, the NIR-II emission [1, 5] was “strongest NIR-II emissions” and the NIR-II emission [1, 6] was “disappeared”.

For `CCN1C=C/C(=C/C=C2\CCCC(/C=C/c3cc[n+](CC)c4ccccc34)=C2Cl)c2ccccc21.[I-]` [compound 1, 4-((E)-2((E)-2-chloro-3-(2-((Z)-J-ethylquinolin-4(JH)-ylidene)-ethylidene)cyclohex-1-en-1-yl)vinyl)-J-ethylquinolin-1-ium iodide], the “NIR-II emission compared to ICG” value ([1]; IR Vivo, excited near its absorbance maximum) was “comparable NIR-II emissions to ICG”, the NIR-II emission [1, 6] was “strong NIR-II signal; also recorded: only compound 1 had measurable fluorescence in the NIR-II window” and the “emission intensity (comparison of compounds 1, 2 and 3)” value (Emission spectra; [4]) was “most intense emission; also recorded: highest fluorescence with an emission maximum in the NIR-II window”. For the same compound, the “emission maxima, shift compared to compound 3” value (Emission spectra; [4]) was “further shifted into the NIR-II window compared to compound 3”, the maximum emission (Emission spectra; [4]) was 1010 nm and the NIR-II fluorescence (Emission spectra) was “measurable NIR-II fluorescence”. The “distribution in ventral image” value (Athymic Nu/Nu mice; 5 mins after injection) was “in the liver”, the “distribution in ventral image” value (Athymic Nu/Nu mice; 2 hours after injection) was “in the throat, liver and intestines” and the “absorbance maxima, shift compared to compound 3” value (Absorbance spectra) was “further shifted into the NIR-II window compared to compound 3”. The maximum absorbance (Absorbance spectra) was 970 nm and the “NIR-II fluorescence of cell lysates (cell uptake)” value (KLN 205 cells) was “measurable emissions; also recorded: measurable fluorescence in the NIR-II window”.

In the case of `OCCN1C=C/C(=C/C=C/C=C/C=C/c2cc[n+](CCO)c3ccccc23)c2ccccc21.[Cl-]` [compound 3, l-(2-hydroxyethyl)-4-((JE,3E,5E)-7-((Z)-J-(2-hydroxyethyl)-quinoline-4(JH)-ylidene)hepta-1,3,5-trien-1-yl)quinoline-1-ium chloride], the maximum emission (Emission spectra; [4]) is reported as 979 nm, the NIR-II fluorescence (Emission spectra) is reported as “measurable NIR-II fluorescence” and the maximum absorbance (Absorbance spectra) is reported as 942 nm. The “NIR-II fluorescence of cell lysates (cell uptake)” value (KLN 205 cells) was “no fluorescence was observed”.
